Reference: US7138433B2, “Quinone-based therapeutic agent for hepatopathy” (Eisai Co., Ltd., priority 2002, dated 2006)

Key:
[1] = system: DCP positive hepatic cancer patients; assay: Trial Example 1: randomized prospective controlled clinical trial of oral VK-II after hepatic cancer treatment; assay type: in vivo, human; conditions: treated group
Description: A clinical trial (randomized prospective controlled study) was carried out as follows.
Out of patients with hepatocellular carcinoma, ones having a serum DCP level above 60 IU/L (DCP positive hepatic cancer) were included in the trial. On the other hand, patients having portal venous invasion, and patients in which there was already VK metabolism through administration of VK or an anti-VK agent, were excluded from the trial.
126 hepatic cancer patients were given treatment from February 1999 to November 2001. As the hepatic cancer treatment, percutaneous cauterization therapy (RFA and/or PEIT) for HCC, treatment via the blood vessels (TAE or TAI), or surgical excision was carried out. Of the patients, 5 were excluded from the present trial.
Next, the remaining 121 patients were randomly divided into a treated group (n=60) and an untreated group (n=61). The treated group were orally administered 45 mg/day of VK-II (proprietary name Glakay, made by Eisai Co., Ltd.) after the hepatic cancer treatment, while the untreated group were not administered VK-II.
Follow-up tests were carried out after the hepatic cancer treatment. As the follow-up tests, ultrasonography (abdominal echography) was carried out every 3 months, a CT scan was carried out every 6 months, and the levels of the tumor markers alpha-fetoprotein and DCP were measured every one month.
Statistical analysis was carried out on the PVI incidence rate and the survival rate for the two groups. That is, calculations were carried out using the Cox proportional hazard model, and a test was carried out using the log-rank method. The average observation period was 12±8 months.

[2] = system: hepatocellular carcinoma patients after treatment; assay: Trial Example 2: trial of VK-II in inhibiting recurrence of hepatocellular carcinoma after treatment; assay type: in vivo, human; conditions: for risk ratio for recurrence of hepatic cancer: Cox proportional hazard model, control group = 1; for time period until 50% recurrence: control group 10 months
Description: A trial was carried out as follows with an objective of investigating the effect and safety of VK-II in inhibiting recurrence of hepatocellular carcinoma after treatment. 61 cases in which hepatocellular carcinoma was diagnosed and then after treatment therefor necrosis (or curative excision) was judged by contrast CT to have completely occurred were entered from March 1999 to March 2001, the entered cases were divided into two groups, namely a VK-II-administered group for which the end of the patient ID number was an odd number and a non-administered group (control group) for which the end of the patient ID number was an even number, and a VK-II preparation (proprietary name […], made by Eisai Co., Ltd.) was orally administered at a dose of 45 mg/day to the administered group. Contrast CT or MRI was carried out every 3 months, and a statistical analysis of the time period until recurrence was carried out. Specifically, comparison was carried out using the Kaplan-Meier method (log-rank test), and the risk ratio for recurrence was analyzed using the Cox proportional hazard model.

HepG2 cells = assay: Invasion assay using HepG2 cells and a Matrigel chamber; assay type: cell-based; conditions: upon adding VK-II; depending on the concentration
From the text: (§1) The action of VK-II according to the present application with regard to invasion/metastasis of hepatic cancer cells was studied in vitro. The action on invasion ability was investigated through an invasion assay using HepG2 cells and a Matrigel chamber. […] Regarding the action on the metastasis ability, the action of VK-II on the expression of extracellular matrix metalloproteinases (MMPs) was investigated using the Western blot method. […] From the above, although the data is in vitro, it can be presumed that VK-II inhibits invasion/metastasis of hepatic cancer cells.

MMP-1 = assay: MMP protein expression in hepatic cancer cells, Western blot; assay type: cell-based; conditions: VK-II added to hepatic cancer cells
From the text: as §1

MMP-3 = assay: as above; assay type: cell-based; conditions: VK-II added to hepatic cancer cells
From the text: as §1

[3] = cited from earlier work
[4] = system: DCP-producing HCC cell line; conditions: in vitro; Hepatology 1995, 22:876-82; cited from earlier work

`CC(C)=CCC/C(C)=C/CC/C(C)=C/CC/C(C)=C/CC1=C(C)C(=O)c2ccccc2C1=O` [VK-II, 2-methyl-3-tetraprenyl-1,4-naphthoquinone] showed a PVI incidence rate ([1]; after 1 year, 45 mg/day oral, untreated group 23%) of 2%, a survival rate ([1]; after 2 years, 45 mg/day oral, untreated group 28% (P=0.044)) of 66% and a PVI incidence rate ([1]; after 2 years, 45 mg/day oral, untreated group 47% (P=0.018)) of 23%. The “DCP level in the serum after hepatic cancer treatment” value ([1]; 45 mg/day oral VK-II (Glakay), for 12 months, untreated group gradually increased) was “remained approximately constant”, the side effects ([2]; 45 mg/day oral) was “no side effects” and the “risk ratio for recurrence of hepatic cancer” value ([2]; HCV cases only) was 0.210. The “risk ratio for recurrence of hepatic cancer” value ([2]; all cases) was 0.329, the “time period until 50% recurrence” value ([2]; HCV cases only) was 26 months and the “1-year cumulative recurrence rate” value ([2]; HCV cases only, control group 61.5%) was 7.1%. The “2-year cumulative recurrence rate” value ([2]; HCV cases only, control group 87.2%) was 37.8%, the DCP upon recurrence ([2]; all cases of recurrence in the VK-II-administered group) was “negative” and the “1-year cumulative recurrence rate” value ([2]; all cases, 45 mg/day oral, control group 55.2%) was 12.5%. The “2-year cumulative recurrence rate” value ([2]; all cases, 45 mg/day oral, control group 85.5%) was 39.6%, the “time period until 50% recurrence” value ([2]; all cases) was 26 months and the “hepatic cancer cumulative recurrence rate compared with the control group” value ([2]; excluding cases of local recurrence (29 vs 22 cases)) was “statistically significantly suppressed”. The “hepatic cancer cumulative recurrence rate compared with the control group” value ([2]; excluding cases of recurrence within 6 months (31 vs 22 cases)) was “statistically significantly suppressed”, the “number of cells passing through the Matrigel” value (HepG2 cells) was “dropped” and the MMP-1 protein expression (MMP-1) was “inhibited”. For the same molecule, the MMP-3 protein expression (MMP-3) was “inhibited”, the solubility in water [3] was “hardly dissolves in water” and the cell proliferation [4] was “inhibited”.
